What was measured:
Format in all cases: cell-based, human
[1] = tested on: latex specific T cell lines; experiment: Oligoclonal T cell proliferation assay (3H-thymidine incorporation); parameters: key to Proliferation inducing (+) or non-inducing (−) peptide: Proliferation inducing and non-inducing peptides are indicated by (+) and (−) respectively; Proliferation inducing and non-inducing peptides are indicated by (+) and (−) respectively; details: for Oligoclonal proliferative response: 4 day cultures
Procedure: Latex specific T cell lines were isolated using our well established methods for the generation of allergen specific oligoclonal T cell populations (O'Hehir et al., 1987). An initial primary culture was performed for each patient to determine the optimal concentration of LAL for stimulation. For this, peripheral blood mononuclear cells (PBMC) separated from heparinised venous blood by density centrifugation (2×10^5/well) were stimulated with LAL over a concentration range 0.03 to 100 μg/ml, with control cultures of PBMC alone or stimulated with tetanus toxoid. All cultures were maintained in complete medium (RPMI-1640, Gibco Life Technologies supplemented with 2 mmol/L L-glutamine, 100 IU/ml penicillin-streptomycin and 5% screened, heat inactivated human AB serum [Sigma]). […] Therefore, to generate T cell lines, PBMC (2.5×10^6/well) were stimulated for 1 week with LAL at a concentration of 20 μg/ml in 24-well tissue culture plates (Costar, USA). After 7 days, lymphoblasts (1×10^6/well) were restimulated for one week with LAL at a concentration of 20 μg/ml in the presence of an equal number of irradiated (3000 rad) autologous PBMC as antigen presenting cells (APC). On days 2 and 4, cultures were supplemented with Lymphocult-T (5% v/v; Biotest Folex, Germany) and fresh medium. At the end of the second week, lymphoblasts were restimulated for one week with rhev b 5/MBP at a concentration of 20 μg/ml as described above. Oligoclonal T cells were recovered, washed and tested in proliferation and cytokine assays (as described below) either fresh or after cryopreservation in liquid nitrogen. We have previously shown that CD4^+ T cells are preferentially expanded in these cultures.
Oligoclonal T cell blasts (5×10^4) were incubated in 96-well round bottom plates (Linbro, ICN Biomedicals, USA) in triplicate with equal numbers of irradiated APC in the presence of LAL at concentrations ranging from 0.03-100 μg/ml, rHev b 5/MBP (10 and 20 μg/ml), MBP (10 and 20 μg/ml), overlapping peptides of the Hev b 5 sequence (10 and 30 μg/ml), Lymphocult-T (10 IU/ml) or PHA (3 μg/ml). Cultures of T cells and APC in the absence of antigen, T cells alone and APC alone in the absence of antigen were included as controls. After 72 hours cultures were pulsed with 1 μCi of ^3H-thymidine (^3HTdR; Du Pont, NEN) and harvested 12-16 hours later. Proliferation as correlated with ^3HTdR incorporation was measured by liquid scintillation spectroscopy. Results are expressed as mean counts per minute (cpm) for triplicate cultures with standard deviation (SD; ±20% for all experiments).

IL-5 = IL-5 production by latex specific oligoclonal T cells (ELISA on culture supernatants); details: for IL-5: supernatant at 48 hours; for secretion of IL-5 (in words): patient 4 T cell line
Procedure: (§1) Representative stimulatory and non-stimulatory peptides were selected and T cells cultured in triplicate with these peptides. At 48 hours 50 μl of supernatant was harvested from the cultures and IL-5 and IFNγ were assayed by ELISA using paired cytokine antibodies (from Pharmingen Becton Dickinson, USA and Endogen, USA respectively). For this, opaque flat bottom ELISA plates (Nalgene, Nunc International) were coated with 30 μl capture antibody at 2 μg/ml in 0.1 M NaHCO3 pH 8.2 coating buffer overnight at 4° C. After washing three times with PBS/0.5% Tween the wells were blocked with 3% BSA/PBS at room temperature for 2 hours. The plates were washed and 30 μL pooled triplicate culture supernatants added in duplicate. […] Light emission was read immediately on a Lumicount microplate Glow Luminometer (Packard Instrument Company). A standard curve was run each time using known concentrations of standard cytokine samples and the concentrations of IL-S and IFNγ in the culture supernatants calculated accordingly. The lower limit of detection of the IL-5 assay was 20 pg/ml and the lower limit of detection of the IFN-γ assay was 2 pg/ml.

IFNγ = IFNγ production by latex specific oligoclonal T cells (ELISA on culture supernatants); details: supernatant at 48 hours
Procedure: as §1

[2] = P1 T cell line, antigen 10 μg/ml
[3] = P1 T cell line, antigen 30 μg/ml
[4] = P2 T cell line, antigen 10 μg/ml
[5] = P2 T cell line, antigen 30 μg/ml
[6] = P3 T cell line, antigen 10 μg/ml
[7] = P3 T cell line, antigen 30 μg/ml
[8] = P4 T cell line, antigen 10 μg/ml
[9] = P4 T cell line, antigen 30 μg/ml
[10] = P5 T cell line, antigen 10 μg/ml
[11] = P5 T cell line, antigen 30 μg/ml
[12] = P6 T cell line, antigen 10 μg/ml
[13] = P6 T cell line, antigen 30 μg/ml
[14] = P1 T cell line, peptide 10 μg/ml
[15] = P1 T cell line, peptide 30 μg/ml
[16] = P2 T cell line, peptide 10 μg/ml
[17] = P2 T cell line, peptide 30 μg/ml
[18] = P4 T cell line, peptide 10 μg/ml
[19] = P4 T cell line, peptide 30 μg/ml

Sequence | Oligoclonal proliferative response [1, 2] [counts per minute × 10^−3] | Oligoclonal proliferative response [1, 3] [counts per minute × 10^−3] | Oligoclonal proliferative response [1, 4] [counts per minute × 10^−3] | Oligoclonal proliferative response [1, 5] [counts per minute × 10^−3] | Oligoclonal proliferative response [1, 6] [counts per minute × 10^−3] | Oligoclonal proliferative response [1, 7] [counts per minute × 10^−3] | Oligoclonal proliferative response [1, 8] [counts per minute × 10^−3] | Oligoclonal proliferative response [1, 9] [counts per minute × 10^−3] | Oligoclonal proliferative response [1, 10] [counts per minute × 10^−3] | Oligoclonal proliferative response [1, 11] [counts per minute × 10^−3] | Oligoclonal proliferative response [1, 12] [counts per minute × 10^−3] | Oligoclonal proliferative response [1, 13] [counts per minute × 10^−3] | IL-5 (IL-5; [14]) [pg/mL] | IL-5 (IL-5; [15]) [pg/mL] | IL-5 (IL-5; [16]) [pg/mL] | IL-5 (IL-5; [17]) [pg/mL] | IL-5/IFNγ ratio (IL-5; [18]) | IL-5 (IL-5; [18]) [pg/mL] | IL-5/IFNγ ratio (IL-5; [19]) | IL-5 (IL-5; [19]) [pg/mL] | further results
AEEEKPITEAAETATTEVPV [Hev b 5 (127-146)] | 3.3 | 4.4 | 3.8 | 6.6 | 7.1 | 8.3 | 2.2 | 1.6 | 2.7 | 2.5 | 1.0 | 0.8 |  |  |  |  |  |  |  |  | 
APAEPEAPAPETEKAEEVEK [Hev b 5 (55-74)] | 5.0 | 7.7 | 2.8 | 5.6 | 9.1 | 8.2 | 2.0 | 2.8 | 1.1 | 0.7 | 0.7 | 0.9 | 0 | 0 | 0 | 0 | 70 | 70 | 199 | 199 | secretion of IL-5 (in words) (IL-5): secretion of IL-5; Proliferation inducing (+) or non-inducing (−) peptide ([1]; P1 T cell line): 55-74 (−); Proliferation inducing (+) or non-inducing (−) peptide ([1]; P2 T cell line): 55-74 (−); Proliferation inducing (+) or non-inducing (−) peptide ([1]; P4 T cell line): 55-74 (+); IFNγ (IFNγ; [14]): 0 pg/mL; IFNγ (IFNγ; [15]): 0 pg/mL; IFNγ (IFNγ; [16]): 2 pg/mL; IFNγ (IFNγ; [17]): 4 pg/mL; IFNγ (IFNγ; [18]): 0 pg/mL; IFNγ (IFNγ; [19]): 0 pg/mL
ASEQETADATPEKEEPTAAP [Hev b 5 (37-56)] | 7.1 | 8.5 | 18.3 | 38.8 | 8.8 | 2.7 | 3.0 | 3.2 | 1.4 | 1.1 | 1.4 | 0.9 | 0 | 0 | 744 | 767 | 173 | 173 | 49.3 | 296 | IL-5/IFNγ ratio (IL-5; [16]): 10.1; IL-5/IFNγ ratio (IL-5; [17]): 10; secretion of IL-5 (in words) (IL-5): secretion of IL-5; Proliferation inducing (+) or non-inducing (−) peptide ([1]; P1 T cell line): 37-56 (−); Proliferation inducing (+) or non-inducing (−) peptide ([1]; P2 T cell line): 37-56 (+); Proliferation inducing (+) or non-inducing (−) peptide ([1]; P4 T cell line): 37-56 (+); IFNγ (IFNγ; [14]): 0 pg/mL; IFNγ (IFNγ; [15]): 0 pg/mL; IFNγ (IFNγ; [16]): 74 pg/mL; IFNγ (IFNγ; [17]): 77 pg/mL; IFNγ (IFNγ; [18]): 0 pg/mL; IFNγ (IFNγ; [19]): 6 pg/mL

Reference: US20070059756A1, “Immunointeractive molecules and their uses in treating subjects suffering from Hev b 5 allergies” (priority 1999, published 2007)
